# Assay results: patent publication US20080058293A1, “Quinoline Derivates and Their Use in Therapy” (priority 2003, published 2008)
# pIC50: −log10 of the molar value. Counter-ions that a name gives are not always drawn.
# Molecular target: T1, P2X7 receptor (Homo sapiens, UniProt Q99572)
# T1 construct: 200 μl of a suspension of THP-1 cells; endogenous in cells; host or cells: THP-1 cells
# T1 sequence (Q99572 1-595): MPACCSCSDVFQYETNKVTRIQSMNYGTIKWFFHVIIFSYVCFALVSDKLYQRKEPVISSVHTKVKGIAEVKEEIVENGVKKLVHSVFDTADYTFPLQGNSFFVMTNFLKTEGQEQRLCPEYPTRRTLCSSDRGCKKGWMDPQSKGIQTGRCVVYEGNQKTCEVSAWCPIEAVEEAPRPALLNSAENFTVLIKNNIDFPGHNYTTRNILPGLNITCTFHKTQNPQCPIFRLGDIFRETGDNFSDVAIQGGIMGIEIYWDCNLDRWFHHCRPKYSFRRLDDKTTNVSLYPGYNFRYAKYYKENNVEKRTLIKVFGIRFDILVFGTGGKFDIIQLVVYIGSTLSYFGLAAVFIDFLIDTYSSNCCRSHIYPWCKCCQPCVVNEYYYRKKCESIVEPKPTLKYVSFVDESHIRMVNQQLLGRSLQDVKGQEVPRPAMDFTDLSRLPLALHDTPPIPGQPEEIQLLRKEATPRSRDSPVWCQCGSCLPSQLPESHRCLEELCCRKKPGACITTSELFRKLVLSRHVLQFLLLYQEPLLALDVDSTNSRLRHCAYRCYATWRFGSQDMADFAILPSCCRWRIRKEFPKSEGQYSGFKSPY
# Assay: bbATP-induced ethidium bromide fluorescence in THP-1 cells, P2X7 receptor antagonist activity
# Type: cell-based
# Conditions: negative logarithm of concentration reducing bbATP agonist activity by 50%, 10^-5M bbATP, 37° C. one hour
# Excerpt: Certain compounds such as benzoylbenzoyl adenosine triphosphate (bbATP) are known to be agonists of the P2X7 receptor, effecting the formation of pores in the plasma membrane (Drug Development Research (1996), 37(3), p. 126). Consequently, when the receptor is activated using bbATP in the presence of ethidium bromide (a fluorescent DNA probe), an increase in the fluorescence of intracellular DNA-bound ethidium bromide is observed. The increase in fluorescence can be used as a measure of P2X7 receptor activation and therefore to quantify the effect of a compound on the P2X7 receptor.
# In this manner, each of the title compounds of the Examples was tested for antagonist activity at the P2X7 receptor. Thus, the test was performed in 96-well flat bottomed microtitre plates, the wells being filled with 250 μl of test solution comprising 200 μl of a suspension of THP-1 cells (2.5×10^6 cells/ml) containing 10^−4M ethidium bromide, 25 μl of a high potassium buffer solution containing 10^−5M bbATP, and 25 μl of the high potassium buffer solution containing 3×10^−5M test compound. The plate was covered with a plastics sheet and incubated at 37° C. for one hour. The plate was then read in a Perkin-Elmer fluorescent plate reader, excitation 520 nm, emission 595 nm, slit widths: Ex 15 nm, Em 20 nm. For the purposes of comparison, bbATP (a P2X7 receptor agonist) and pyridoxal 5-phosphate (a P2X7 receptor antagonist) were used separately in the test as controls.
row,pIC50,Compound
1,6.10,"O=C(CCc1ccccc1Cl)Nc1c(Cl)ccc2nc(N3CCC(C(=O)O)CC3)ccc12 [Example 20, 1-[6-Chloro-5-[[3-(2-chlorophenyl)-1-oxopropyl]amino]-2-quinolinyl]-4-piperidinecarboxylic acid, potassium salt]"

# System: not given
# Assay: not given
# Conditions: not given
row,melting point,Compound
1,250 to 253 °C,"O=C(NCCc1ccccc1Cl)c1c(Cl)ccc2nc(N3CCC(C(=O)O)CC3)ccc12 [Example 24, 1-[6-Chloro-5-[[[2-(2-chlorophenyl)ethyl]amino]carbonyl]-2-quinolinyl]-4-piperidinecarboxylic acid]"
2,180 to 182 °C,"O=C(CCc1ccccc1Cl)Nc1c(Cl)ccc2nc(N3CC[C@H](NCCO)C3)ccc12 [Example 19, 2-Chloro-N-[6-chloro-2-[(3S)-3-[(2-hydroxyethyl)amino]-1-pyrrolidinyl]-5-quinolinyl]-benzenepropanamide]"
3,196 to 198 °C,"N[C@H]1CCN(c2ccc3c(C(=O)NCCc4ccccc4Cl)c(Cl)ccc3n2)C1 [Example 21, 2-[(3S)-3-Amino-1-pyrrolidinyl]-6-chloro-N-[2-(2-chlorophenyl)ethyl]-5-quinolinecarboxamide]"
4,231 to 234 °C,"O=C(NCCc1ccc(Cl)cc1)c1c(Cl)ccc2nc(N3CCC(C(=O)O)CC3)ccc12 [Example 31, 1-[6-Chloro-5-[[[2-(4-chlorophenyl)ethyl]amino]carbonyl]-2-quinolinyl]-4-piperidinecarboxylic acid]"
5,270 to 272 °C,"O=C(NCCc1ccccc1F)c1c(Cl)ccc2nc(N3CCC(C(=O)O)CC3)ccc12 [Example 27, 1-[6-Chloro-5-[[[2-(2-fluorophenyl)ethyl]amino]carbonyl]-2-quinolinyl]-4-piperidinecarboxylic acid]"
6,204 to 207 °C,"C[C@H](CC(=O)Nc1c(Cl)ccc2nc(N3CC[C@H](N)C3)ccc12)c1ccccc1 [Example 13, (βR)-N-[2-[(3S)-3-Amino-1-pyrrolidinyl]-6-chloro-5-quinolinyl]-β-methyl-benzenepropanamide]"
7,168 to 170 °C,"CC(Cc1ccc(Cl)c(Cl)c1)C(=O)Nc1cccc2ncccc12 (stereo not drawn) [Example 8, 3,4-Dichloro-α-methyl-N-5-quinolinyl-benzenepropanamide]"
8,159 to 162 °C,"CNCCCN(C)c1ccc2c(NC(=O)C[C@@H](C)c3ccccc3)c(Cl)ccc2n1 (as salt: trifluoroacetate) [Example 3, (βR)-N-[6-Chloro-2-[methyl[3-(methylamino)propyl]amino]-5-quinolinyl]-β-methyl-benzenepropanamide, ditrifluoroacetate]"
9,231 to 234 °C,"O=C(CCc1ccccc1)Nc1c(Cl)ccc2nc(N3CCNCC3)ccc12 [Example 17, N-[6-Chloro-2-(1-piperazinyl)-5-quinolinyl]-benzenepropanamide]"
10,194 to 196 °C,"C[C@H](CC(=O)Nc1c(Cl)ccc2nc(N3CCNCC3)ccc12)c1ccccc1 [Example 4, (βR)-N-[6-Chloro-2-(1-piperazinyl)-5-quinolinyl]-β-methyl-benzenepropanamide]"
11,237 to 241 °C,"Cc1ccccc1CCNC(=O)c1c(Cl)ccc2nc(N3CCC(C(=O)O)CC3)ccc12 [Example 28, 1-[6-Chloro-5-[[[2-(2-methylphenyl)ethyl]amino]carbonyl]-2-quinolinyl]-4-piperidinecarboxylic acid]"
12,150 to 153 °C,"C[C@H](CNC(=O)c1c(Cl)ccc2nc(N3CCC(C(=O)O)CC3)ccc12)c1ccccc1 [Example 29, 1-[6-Chloro-5-[[[(2S)-2-phenylpropyl]amino]carbonyl]-2-quinolinyl]-4-piperidinecarboxylic acid]"
13,200 °C (dec.),"O=C(CCc1ccc(Cl)cc1Cl)Nc1c(Cl)ccc2nc(N3CCNCC3)ccc12 (as salt: hydrochloride) [Example 11, 2,4-Dichloro-N-[6-chloro-2-(1-piperazinyl)-5-quinolinyl]-benzenepropanamide, dihydrochloride]"
14,182 to 185 °C,"Cc1ccc2c(C(=O)NC[C@@H](C)c3ccccc3)c(Cl)ccc2n1 (as salt: hydrochloride) [Example 2, 6-Chloro-2-methyl-N-[(2S)-2-phenylpropyl]-5-quinolinecarboxamide, hydrochloride]"
15,200 to 212 °C,"N[C@H]1CCN(c2ccc3c(NC(=O)CCc4ccccc4Cl)c(Cl)ccc3n2)C1 [Example 18, N-[2-[(3S)-3-Amino-1-pyrrolidinyl]-6-chloro-5-quinolinyl]-2-chlorobenzenepropanamide]"
16,170 to 172 °C,"Cc1ccc2c(C(=O)NCCc3ccccc3)c(Cl)ccc2n1 [Example 5, 6-Chloro-2-methyl-N-(2-phenylethyl)-5-quinolinecarboxamide]"
17,265 to 270 °C,"O=C(CCc1ccccc1Cl)Nc1c(Cl)ccc2nc(N3CCNCC3)ccc12 (as salt: hydrochloride) [Example 10, 2-Chloro-N-[6-chloro-2-(1-piperazinyl)-5-quinolinyl]-benzenepropanamide, dihydrochloride]"
18,155 to 158 °C,"C[C@H](CC(=O)Nc1c(Cl)ccc2nc(N3CC[C@H](NCCCO)C3)ccc12)c1ccccc1 [Example 15, (βR)-N-[6-Chloro-2-[(3S)-3-[(3-hydroxypropyl)amino]-1-pyrrolidinyl]-5-quinolinyl]-β-methyl-benzenepropanamide]"
19,183 to 188 °C,"O=C(CCc1ccc(Cl)cc1)Nc1c(Cl)ccc2nc(N3CCNCC3)ccc12 (as salt: hydrochloride) [Example 12, 4-Chloro-N-[6-chloro-2-(1-piperazinyl)-5-quinolinyl]-benzenepropanamide, dihydrochloride]"
20,178 to 182 °C,"C[C@H](CC(=O)Nc1c(Cl)ccc2nc(NCCNCCO)ccc12)c1ccccc1 (as salt: hydrochloride) [Example 9, (βR)-N-[6-Chloro-2-[[2-[(2-hydroxyethyl)amino]ethyl]amino]-5-quinolinyl]-β-methyl-benzenepropanamide, dihydrochloride]"
21,190 to 192 °C,"Cc1ccc2c(C(=O)NC[C@H](C)c3ccccc3)c(Cl)ccc2n1 (as salt: hydrochloride) [Example 1, 6-Chloro-2-methyl-N-[(2R)-2-phenylpropyl]-5-quinolinecarboxamide, hydrochloride]"
22,170 to 172 °C,"O=C(NCCc1ccccc1Cl)c1c(Cl)ccc2nc(N3CC[C@H](NCCO)C3)ccc12 [Example 22, 6-Chloro-N-[2-(2-chlorophenyl)ethyl]-2-[(3S)-3-[(2-hydroxyethyl)amino]-1-pyrrolidinyl]-5-quinolinecarboxamide]"
23,118 to 120 °C,"C[C@H](CC(=O)Nc1c(Cl)ccc2nc(CCCNCCCO)ccc12)c1ccccc1 [Example 7, (βR)-N-[6-Chloro-2-[3-[(3-hydroxypropyl)amino]propyl]-5-quinolinyl]-β-methyl-benzenepropanamide]"
24,177 to 182 °C,"C[C@H](CC(=O)Nc1c(Cl)ccc2nc(N3CC[C@H](NCCO)C3)ccc12)c1ccccc1 (as salt: hydrochloride) [Example 16, (βR)-N-[6-Chloro-2-[(3S)-3-[(2-hydroxyethyl)amino]-1-pyrrolidinyl]-5-quinolinyl]-β-methyl-benzenepropanamide, dihydrochloride]"
25,262 to 264 °C,"O=C(NCCc1c(Cl)cccc1Cl)c1c(Cl)ccc2nc(N3CCC(C(=O)O)CC3)ccc12 [Example 23, 1-[6-Chloro-5-[[[2-(2,6-dichlorophenyl)ethyl]amino]carbonyl]-2-quinolinyl]-4-piperidinecarboxylic acid]"
26,260 to 262 °C,"O=C(NCCc1ccccc1)c1c(Cl)ccc2nc(N3CCC(C(=O)O)CC3)ccc12 [Example 26, 1-[6-Chloro-5-[[(2-phenylethyl)amino]carbonyl]-2-quinolinyl]-4-piperidinecarboxylic acid]"
27,180 to 185 °C,"O=C(NCC(c1ccccc1)c1ccccc1)c1c(Cl)ccc2nc(N3CCC(C(=O)O)CC3)ccc12 (as salt: acetate) [Example 25, 1-[6-Chloro-5-[[(2,2-diphenylethyl)amino]carbonyl]-2-quinolinyl]-4-piperidinecarboxylic acid, acetate]"
